In US9023817B2, “Use of albiflorin for anti-depression” (priority 2009, dated 2015):

Tests used:
[1] = tested on: rats with chronic stress induced depression model; assay: Body weights of rats with chronic stress induced depression (CUMS); type: in vivo, SD rats
Description: (§1) The gavage was carried out along with the model establishment, once a day, for 21 days. […] Referring to the methods in the literature (Xu Jing, Li Xiaoqiu, Establishment and evaluation of the model of chronic stress induced depression, Chinese Journal of Behavioral Medical Science, 2003, 12(1): 14 16), the model was established (i.e., establishing animal model of anti-depression by means of CUMS): the foot electric shock (voltage: […] (5 minutes), drying at 45° C. (5 minutes), tail nipping (1 min), wet feeding (wet mat), reversed day and night (24 hours), fasting (24 hours), water deprivation (24 hours) were randomly scheduled within 21 days, one kind of stimulations was given for each day, except for the animals of vehicle group, the others were separately caged with free diet, at the room temperature of (24±1)° C., with the relative humidity of (60±10)%. All parameters to be tested were expressed as Mean±SD (X±s), and tested by means of analysis of variance (ANOVA) in SPSS 12.0 software (purchased from SPSS Inc., USA), p<0.05 means that there was a significant difference.

ICR mice = assay: Tail suspension test in mice, intraperitoneal injection; type: in vivo; conditions: 7 mg/kg intraperitoneal injection, 1 day; 30 min after administration
Description: Normal mice were randomly divided into three groups (n=20 for each group) according to their weights, i.e. model group, high-dose group (14 mg/kg) and medium-dose group (7 mg/kg) of Albiflorin. Intraperitoneal injection group was subjected to the administration for 1 day. Each group was administered at a dose of 0.2 ml/10 g weight.
The test of intraperitoneal injection group was performed at 30 min after the administration. The tail of mouse 2 cm away from the tip of the tail) was fixed to the connection line of 100 g tension transducer with adhesive plaster, and the mouse was hung upside down, with the head about 15 cm away from the experimental bench, two animals isolated from each other by a cardboard were simultaneously tested for each time. The transducer was connected into the Medlab bio-signals acquisition and processing system, after 2 mins of adaption, the result over 4 mins was recorded, and the immobility situation was converted into the time(s).
The experimental data was expressed as X±SD, and the analysis of variance for the experimental results was carried out by SPSS 11.5 statistical software (purchased from SPSS Inc., USA).

[2] = tested on: serotonin in the brain of rat; assay: Serotonin in the brain of rat with chronic stress (HPLC-ECD, prefrontal cortex); type: in vivo, SD rats; conditions: 3.5 mg/kg/d gavage for 21 days
Description: After being fed without water for 24 hours, SD rats were administered with 1% aqueous sucrose, the consumption of aqueous sucrose was measured for 1 hour. The rats were randomly divided into six groups (n=12 for each group) according to the consumptions of aqueous sucrose, i.e. vehicle group, model group, positive control group of Fluoroxetine Hydrochloride (2.5 mg/kg/d), high-dose group (14 mg/kg/day), medium-dose group (7 mg/kg/day), and low-dose group (3.5 mg/kg/day) of Albiflorin. The gavage was carried out along with the model establishment, once a day, for 21 days. Each group was administered at a dose of 1.0 ml/100 g weight, and weighed once a week.
The rats were fed at 6/cage as vehicle group, with normal diets and drinking water, and without any stimulation.
The rats were fed at 1/cage as the other five groups, and subjected to unpredicted stress stimulations for 21 days, including: swimming in ice water, drying, tail nipping, wet feeding, reversed day and night, fasting, water deprivation and the like. One kind of stimulations was randomly given for each day.
The animal was executed by decapitation, the brain of it was quickly stripped on the ice, the prefrontal cortex was taken out, then placed into frozen tissue tube after weighting, rapidly frozen with liquid nitrogen, and placed into the refrigerator at −70° C. until test.

[3] = tested on: rats with chronic stress induced depression model; assay: Open-field test, chronic stress induced depression; type: in vivo, SD rats; conditions: 3.5 mg/kg/day gavage for 21 days; 3 minutes
Description: as §1, with “(60±10)%. The open-field device was of 40 cm in height, 80 cm in both length and width, without cap, the inner walls and the bottom of the device are black, and the bottom was divided into 25 squares with equal area. The numbers of squares that the animals pass through were designated as the score of horizontal movement, and the numbers of standing (with the forelegs above 1 cm away from the ground) were designated as the score of vertical movement. Each animal was measured for one time, 3 minutes for each measurement.” for “(60±10)%.”

In the case of `C[C@]12C[C@@H](O)[C@@H]3C[C@@]1(O[C@@H]1O[C@H](CO)[C@@H](O)[C@H](O)[C@H]1O)[C@@]3(COC(=O)c1ccccc1)C(=O)O2` [Albiflorin], the body weights ([1]; 3.5 mg/kg/day gavage, Day 0) is reported as 256.83 ± 11.49 g, the body weights ([1]; 3.5 mg/kg/day gavage, Day 7) is reported as 265.65 ± 11.23 g and the body weights ([1]; 3.5 mg/kg/day gavage, Day 14) is reported as 270.75 ± 18.15 g. For the same molecule, the body weights ([1]; 3.5 mg/kg/day gavage, Day 21) was 271.07 ± 19.06 g, the body weights ([1]; 7 mg/kg/day gavage, Day 0) was 250.18 ± 13.45 g and the body weights ([1]; 7 mg/kg/day gavage, Day 7) was 265.65 ± 12.44 g. The body weights ([1]; 14 mg/kg/day gavage, Day 0) was 255.84 ± 11.69 g, the body weights ([1]; 14 mg/kg/day gavage, Day 7) was 268.11 ± 17.50 g and the “Immobility Time” value (ICR mice) was 82.350 ± 52.5132 s. For the same molecule, the 5-HT [2] was 188.43 ± 67.91, the “Score of horizontal movement” value [3] was 21.42 ± 20.38 and the “Score of vertical movement” value [3] was 4.67 ± 6.87.
